Experiments:
Fisher 344 rats [1] = test: EEG in rats administered mango leaf extract and/or caffeine, Example 5; format: in vivo, rat; settings: 0.50 mg/kg oral
Excerpt: After automatic artefact rejection, signals were collected in sweeps of 4 s duration and Fast Fourier transformed using a Hanning window. […] Nine adult male Fisher 344 rats (5 months of age and day-night converted, weight about 350-400 g, were implanted with electrodes into the brain and were given two weeks for recovery from surgery. Three animals dropped the implant after performance of a placebo series. […] A crossover design with at least three days of drug holidays in between drug administrations was used. […] The animals were dosed orally at a constant volume of 1.0 ml/kg per kg body weight. The dosage administered to each animal was determined every day by the weight of that animal at the time of administration. Data were averaged from 5-9 animals, and are expressed as mean values±S.E.M.

[2] = tested on: pyramidal cells in hippocampus slices of rat brains; test: Ex vivo population spikes in hippocampal slice preparation, Example 6
Protocol: Hippocampus slices of rat brains were tested. After daily administration of trial medication for one week, 4 animals were sacrificed under deep anesthesia and the hippocampus was removed and chopped by a vibrating razor blade to give 6 slices of about […] thickness per animal. Slices were taken one day after the last treatment. After adaptation to artificial cerebrospinal fluid for one hour, slices were transferred to an incubation chamber and superfused with cerebrospinal fluid at 35° C. Schaffer collaterals are branches extending from the axons of CA3 pyramidal cells in the hippocampus. Schaffer collaterals project to the CA1 area of the hippocampus, and are an integral part of memory formation. The Schaffer Collaterals were stimulated by single stimuli or theta burst stimuli, where theta burst stimuli are short bursts of stimulation at high frequencies, applied 5 times per second.

Fisher 344 rats [3] = test: EEG (electropharmacogram) in freely moving rats, Example 1; format: in vivo, rat; settings: oral gavage, 5-65 min after administration, FIG. 1
Protocol: Fisher 344 rats (11 months of age and day-night converted, weight about 350-400 g, provided by Charles River Laboratories, D-97633, Sulzfeld) were used in a series of experiments on the effects of various herbal and pharmaceutical products on central nervous system activity. Products were provided to the test subjects orally (gavage).
EEG signals were recorded by telemetry from 4 implanted electrodes in the frontal cortex, hippocampus and striatum of freely moving rats from inside a totally copper shielded room. Signals were collected in sweeps of 4 second duration and Fast Fourier transformed using a Hanning window. EEG signals were recorded over a period starting 5 minutes after administration of the test substances, and ending 65 minutes after administration of the test substances. Sampling frequency was 512 Hz. […] In an off-line procedure the spectra were averaged to give longer periods for further analysis and data presentation. Spectral activity within the frontal cortex, hippocampus, striatum and reticular formation was recorded.

acetylcholinesterase = acetylcholinesterase (Homo sapiens, UniProt P22303); settings: cited from earlier work
brain wave activity = test: General statements on CNS activity, equivalence, onset and duration after ingestion; format: in vivo
Fisher 344 rats [4] = test: EEG in freely moving rats, two recording periods, Example 2; format: in vivo, rat; settings: oral, FIG. 2B/2C, period not separated
Protocol: Products were provided to the test subjects orally (gavage).
EEG signals were recorded by telemetry from 4 implanted electrodes in the frontal cortex, hippocampus and striatum of freely moving rats from inside a totally copper shielded room.

MAOA = molecular target: T1, MAOA (Homo sapiens, UniProt P21397); settings: said to underlie anti-depressant-like effect; cited from earlier work
T1 sequence (P21397 1-527): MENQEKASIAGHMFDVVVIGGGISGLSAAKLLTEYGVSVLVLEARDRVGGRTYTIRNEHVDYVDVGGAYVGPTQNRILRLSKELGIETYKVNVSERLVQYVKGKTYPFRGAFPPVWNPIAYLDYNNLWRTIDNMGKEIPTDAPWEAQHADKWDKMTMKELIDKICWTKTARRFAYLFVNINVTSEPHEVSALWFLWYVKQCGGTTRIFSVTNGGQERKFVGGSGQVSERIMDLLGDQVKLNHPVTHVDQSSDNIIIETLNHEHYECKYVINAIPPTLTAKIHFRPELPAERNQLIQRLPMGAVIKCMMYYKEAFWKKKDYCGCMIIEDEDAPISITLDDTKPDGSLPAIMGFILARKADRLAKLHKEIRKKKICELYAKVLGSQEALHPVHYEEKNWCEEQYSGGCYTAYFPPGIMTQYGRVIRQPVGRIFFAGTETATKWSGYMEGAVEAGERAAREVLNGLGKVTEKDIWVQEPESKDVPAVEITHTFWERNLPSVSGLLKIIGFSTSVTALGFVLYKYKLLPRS

Sequence of acetylcholinesterase (P22303 32-614, species assumed): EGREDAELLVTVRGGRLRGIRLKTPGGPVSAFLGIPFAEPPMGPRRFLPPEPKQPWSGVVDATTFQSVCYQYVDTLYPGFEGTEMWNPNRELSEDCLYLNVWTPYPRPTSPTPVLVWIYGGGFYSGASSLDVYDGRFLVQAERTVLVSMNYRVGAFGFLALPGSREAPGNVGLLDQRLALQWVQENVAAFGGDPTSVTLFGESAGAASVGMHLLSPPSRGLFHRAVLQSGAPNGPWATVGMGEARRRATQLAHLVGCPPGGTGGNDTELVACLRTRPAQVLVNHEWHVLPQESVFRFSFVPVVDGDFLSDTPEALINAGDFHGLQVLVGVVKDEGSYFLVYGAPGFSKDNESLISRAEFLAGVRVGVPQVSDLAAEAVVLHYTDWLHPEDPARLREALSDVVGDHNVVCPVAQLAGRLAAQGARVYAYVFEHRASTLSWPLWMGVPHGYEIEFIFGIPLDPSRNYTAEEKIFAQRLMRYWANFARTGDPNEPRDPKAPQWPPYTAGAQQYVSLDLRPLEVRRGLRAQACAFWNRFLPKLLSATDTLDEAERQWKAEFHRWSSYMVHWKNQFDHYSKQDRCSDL

| SMILES | delta waves in the striatum (Fisher 344 rats [1]; FIG. 6) | delta, theta and beta power in the hippocampus (Fisher 344 rats [1]; FIG. 6) | delta power in the frontal cortex (Fisher 344 rats [1]; FIG. 6, p<0.1) | delta power in the frontal cortex and reticular formation (Fisher 344 rats [1]; from the second hour after administration on) | alpha2 power (Fisher 344 rats [1]; last hour, p<0.05 in the reticular formation) | Amplitude (population spike), Single Stimulation ([2]; SS, slices after one week daily dosing, caffeine 0.5 mg/kg, mango leaf extract 25 mg/kg) | Amplitude (population spike), Theta Burst Stimulation ([2]; TBS, slices after one week daily dosing, caffeine 0.5 mg/kg, mango leaf extract 25 mg/kg) | pyramidal cell activity ([2]; Table 1 and FIG. 11) | CNS profile (EEG) compared with reference substances (Fisher 344 rats [3]) | acetylcholinesterase inhibition (acetylcholinesterase) | caffeine-type side-effects (nausea, fast or irregular pulse, irritability, loss of concentration) (brain wave activity; even at high servings or doses) | dose dependence of CNS stimulation beyond a threshold (brain wave activity; in vivo) | calming activity when ingested (brain wave activity; unlike caffeine) | gamma wave activity in the striatum (Fisher 344 rats [4]) | MAOA inhibition (MAOA) |
| --- | --- | --- | --- | --- | --- | --- | --- | --- | --- | --- | --- | --- | --- | --- | --- |
| Cn1c(=O)c2c(ncn2C)n(C)c1=O [Caffeine] | minor but statistically conspicuous decrease | statistically significant attenuation | statistically conspicuous attenuation | statistically significant increases of delta power | increases of alpha2 power were observed except for the striatum | 1.3 (SS) mv | 3.1 (TBS) mv | significantly smaller effect on such activity than mango leaf extract |  |  |  |  |  |  |  |
| O=c1c2cc(O)c(O)cc2oc2cc(O)c([C@@H]3O[C@H](CO)[C@@H](O)[C@H](O)[C@H]3O)c(O)c12 [Mangiferin] |  |  |  |  |  |  |  |  | surprisingly similar to the CNS profiles of reference caffeine, citicolin and Guarana | acetylcholinesterase inhibiting activity | none of the well-known side-effects | plateau effect | calming, de-stressing activity | not observed | inhibition of MAOA |

— US11376294B2, “Mangiferin-containing compositions for improving sports performance” (priority 2016, dated 2022)
